In US20110015198A1, “DIARYLMETHYLAMIDE DERIVATIVE HAVING MELANIN-CONCENTRATING HORMONE RECEPTOR ANTAGONISM” (BANYU PHARMACEUTICAL CO., INC., priority 2008, published 2011):

Target: T1, human MCH-1R (Homo sapiens, UniProt Q99705)
T1 construct: expressed in transfected cells; host or cells: CHO-K1 (American Type Culture Collection), plasmid vector pEF/myc/cyto
Assay: MCH binding inhibition test
Settings: membrane samples from MCH-1R expressing CHO-K1 cells, 50 pM [125I]MCH, 25° C., one hour; read-out: IC50 (nM); 50% inhibition concentration (IC50 value) for specific [125I]MCH binding
Description: Pharmacological test example: MCH binding inhibition test A cDNA sequence encoding human MCH-1R [FEBS Letters, Vol. 398, 253 (1996); Biochimica et Biophisica Acta, Vol. 1401, 216 (1998)] was cloned to a plasmid vector pEF/myc/cyto (manufactured by Invitrogen). The obtained expression vector was transfected to a host cell CHO-K1 (American Type Culture Collection) using Lipofectamine Plus reagent (manufactured by Life Technology) to provide MCH-1R expression cells.
Membrane samples prepared from the MCH-1R expression cells were incubated with a test compound and 50 pM [^125I]MCH (manufactured by NEN) in an assay buffer (50 mM Tris buffer containing 10 mM magnesium chloride, 2 mM ethylenediamine tetraacetate, 0.01% bacitracin, and 0.2% bovine serum albumin; pH 7.4) at 25° C. for one hour, followed by filtration through a glass filter GF/C (manufactured by Wattman). The glass filter was washed with 50 mM Tris buffer (pH 7.4) containing 10 mM magnesium chloride, 2 mM ethylenediamine tetraacetate, and 0.04% Tween-20, and then the radioactivity on the glass filter was determined Non-specific binding was measured in the presence of 1 μM human MCH, and, with respect to each test compound, 50% inhibition concentration (IC50 value) for specific [^125I]MCH binding was determined.

T1 sequence (Q99705 whole entry): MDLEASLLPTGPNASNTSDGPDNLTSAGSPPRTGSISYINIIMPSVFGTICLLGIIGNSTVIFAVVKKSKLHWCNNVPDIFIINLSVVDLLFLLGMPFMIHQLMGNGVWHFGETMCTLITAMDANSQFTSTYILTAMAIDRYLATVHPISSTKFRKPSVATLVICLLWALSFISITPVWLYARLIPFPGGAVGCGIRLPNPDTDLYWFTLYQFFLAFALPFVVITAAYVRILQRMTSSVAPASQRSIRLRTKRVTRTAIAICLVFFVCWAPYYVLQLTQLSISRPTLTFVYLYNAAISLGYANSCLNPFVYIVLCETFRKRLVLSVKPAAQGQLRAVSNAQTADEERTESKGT

SMILES	IC50 [nM]
CN(C(=O)C(C)(C)O)C(c1ccc(F)c(F)c1)c1ccc(CN2CCC(c3ccc(F)nc3)CC2)cn1 (single isomer, unassigned) [Example 1-37, (R)— or (S)—N-[(3,4-difluorophenyl)(5-{[4-(6-fluoropyridin-3-yl)piperidin-1-yl]methyl}pyridin-2-yl)methyl]-2-hydroxy-N,2-dimethylpropanamide]	17
CC(NC(=O)C(F)F)(c1ccc(F)c(F)c1)c1ccc(CN2CCC(c3ccc(F)nc3)CC2)cn1 (single isomer, unassigned) [Example 1-58, (R)— or (S)—N-[1-(3,4-difluorophenyl)-1-(5-{[4-(6-fluoropyridin-3-yl)piperidin-1-yl]methyl}pyridin-2-yl)ethyl]-2,2-difluoroacetamide]	1.7
O=C1C(F)CCN1C(c1ccc(CN2CCC3(CC2)OCc2ccncc23)cc1)c1ccc(F)c(F)c1 (single isomer, unassigned) [Example 2-5, (3R)— or (3S)—[(R)— or (S)-1-{(3,4-difluorophenyl)[4-(1H,1′H-spiro[furo[3,4-c]pyridine-3,4′-piperidin]-1′-ylmethyl)phenyl]methyl}]-3-fluoropyrrolidin-2-one]	0.18
Cn1cc2c(cc1=O)C1(CCN(Cc3ccc(C(c4ccc(F)c(F)c4)N4CCCS4(=O)=O)cc3)CC1)OC2 (centres unmarked) [Example 1-20, 1′-{4-[(3,4-difluorophenyl)(1,1-dioxideisothiazolidin-2-yl)methyl]benzyl}-5-methyl-3,5-dihydro-6H-spiro[furo[3,4-c]pyridine-1,4′-piperidin]-6-one]	2.9
O=C1CCCN1C(c1ccc(CN2CCC3(CC2)OCc2ccncc23)cc1)c1ccc(F)c(F)c1 (centres unmarked) [Example 2-1, 1-{(3,4-difluorophenyl)[4-(1H,1′H-spiro[furo[3,4-c]pyridine-3,4′-piperidin]-1′-ylmethyl)phenyl]methyl}pyrrolidin-2-one]	0.26
